# Laboratory results taken from PubChem BioAssay AID1745844 (Carcinogenic Potency Database (CPDB), 2022).
# The source made the active and inactive calls. The rule behind the calls is not given here.
# Test system: rodent lifetime carcinogenesis bioassay, tumor incidence TD50
# Assay: carcinogenic potency in animals, long-term in vivo studies, CPDB compilation (AID 1745844)
# Conditions: for carcinogen call: lesion: one or several types, types not named
smiles,measurement,setting,value
C/C=C/C=C/C=O,TD50,"mouse, strain B6C3F1, females, by gavage, site: forestomach, lesion: squamous-cell carcinoma + squamous-cell papilloma, dosed 104 weeks, study length 104 weeks",129 mg/kg/day
same,TD50,"mouse, strain B6C3F1, females, by gavage, site: forestomach, lesion: squamous-cell carcinoma, dosed 104 weeks, study length 104 weeks",580 mg/kg/day
same,TD50,"mouse, strain B6C3F1, females, by gavage, site: forestomach, lesion: squamous-cell papilloma, dosed 104 weeks, study length 104 weeks",165 mg/kg/day
same,TD50,"mouse, strain B6C3F1, females, by gavage, site: skin, lesion: fibrosarcoma + fibrous histiocytoma, dosed 104 weeks, study length 104 weeks",218 mg/kg/day
same,TD50,"mouse, strain B6C3F1, males, by gavage, site: any site (literature study), lesion: several types, types named in the paper, dosed 104 weeks, study length 104 weeks",279 mg/kg/day
same,TD50,"mouse, strain B6C3F1, males, by gavage, site: forestomach, lesion: squamous-cell carcinoma + squamous-cell papilloma, dosed 104 weeks, study length 104 weeks",279 mg/kg/day
same,TD50,"mouse, strain B6C3F1, males, by gavage, site: forestomach, lesion: squamous-cell papilloma, dosed 104 weeks, study length 104 weeks",354 mg/kg/day
same,TD50,"mouse, strain B6C3F1, males, by gavage, site: liver, lesion: hepatocellular adenoma + hepatoblastoma + hepatocellular carcinoma, dosed 104 weeks, study length 104 weeks",211 mg/kg/day
same,TD50,"mouse, strain B6C3F1, males, by gavage, site: lung, lesion: alveolar/bronchiolar adenoma + alveolar/bronchiolar carcinoma, dosed 104 weeks, study length 104 weeks",1980 mg/kg/day
same,TD50,"mouse, strain B6C3F1, males, by gavage, site: tongue, lesion: squamous-cell carcinoma, dosed 104 weeks, study length 104 weeks",2080 mg/kg/day
same,TD50,"rat, strain Fischer 344, females, by gavage, site: any site (literature study), lesion: several types, types named in the paper, dosed 104 weeks, study length 104 weeks",112 mg/kg/day
same,TD50,"rat, strain Fischer 344, females, by gavage, site: forestomach, lesion: squamous-cell papilloma, dosed 104 weeks, study length 104 weeks",102 mg/kg/day
same,TD50,"rat, strain Fischer 344, males, by gavage, site: adrenal medulla, lesion: pheochromocytoma, malignant, dosed 104 weeks, study length 104 weeks",415 mg/kg/day
same,TD50,"rat, strain Fischer 344, males, by gavage, site: any site (literature study), lesion: several types, types named in the paper, dosed 104 weeks, study length 104 weeks",107 mg/kg/day
same,TD50,"rat, strain Fischer 344, males, by gavage, site: forestomach, lesion: squamous-cell carcinoma + squamous-cell papilloma, dosed 104 weeks, study length 104 weeks",44.7 mg/kg/day
same,TD50,"rat, strain Fischer 344, males, by gavage, site: forestomach, lesion: squamous-cell papilloma, dosed 104 weeks, study length 104 weeks",46.1 mg/kg/day
CC(=O)Nc1nnc(-c2ccc([N+](=O)[O-])o2)s1,TD50,"mouse, strain Swiss, females, in feed, site: any site (literature study), lesion: several types, types named in the paper, dosed 46 weeks, study length 55 weeks",6.9 mg/kg/day
same,TD50,"mouse, strain Swiss, females, in feed, site: forestomach, lesion: several types, types named in the paper, dosed 46 weeks, study length 55 weeks",6.74 mg/kg/day
same,TD50,"mouse, strain Swiss, females, in feed, site: forestomach, lesion: squamous-cell carcinoma, dosed 46 weeks, study length 55 weeks",104 mg/kg/day
same,TD50,"mouse, strain Swiss, females, in feed, site: forestomach, lesion: squamous-cell papilloma, dosed 46 weeks, study length 55 weeks",14.1 mg/kg/day
same,TD50,"rat, strain Sprague-Dawley, females, in feed, site: all sites, lesion: lymphoblastic lymphoma, dosed 40 weeks, study length 59 weeks",111 mg/kg/day
same,TD50,"rat, strain Sprague-Dawley, females, in feed, site: forestomach, lesion: several types, types named in the paper, dosed 40 weeks, study length 59 weeks",8.84 mg/kg/day
same,TD50,"rat, strain Sprague-Dawley, females, in feed, site: forestomach, lesion: squamous-cell papilloma, dosed 40 weeks, study length 59 weeks",11.6 mg/kg/day
same,TD50,"rat, strain Sprague-Dawley, females, in feed, site: intestine, lesion: hemangioendothelial sarcoma, dosed 40 weeks, study length 59 weeks",18.6 mg/kg/day
same,TD50,"rat, strain Sprague-Dawley, females, in feed, site: kidney/pelvis, lesion: transitional-cell carcinoma, dosed 40 weeks, study length 59 weeks",16.9 mg/kg/day
same,TD50,"rat, strain Sprague-Dawley, females, in feed, site: liver, lesion: hemangioendothelial sarcoma, dosed 40 weeks, study length 59 weeks",22.9 mg/kg/day
same,TD50,"rat, strain Sprague-Dawley, females, in feed, site: lung, lesion: alveolar-cell carcinoma, dosed 40 weeks, study length 59 weeks",15.3 mg/kg/day
same,TD50,"rat, strain Sprague-Dawley, females, in feed, site: lung, lesion: hemangioendothelial sarcoma, dosed 40 weeks, study length 59 weeks",52.3 mg/kg/day
same,TD50,"rat, strain Sprague-Dawley, females, in feed, site: mammary gland, lesion: adenocarcinoma, dosed 40 weeks, study length 59 weeks",37.7 mg/kg/day
same,TD50,"rat, strain Sprague-Dawley, females, in feed, site: mammary gland, lesion: several types, types named in the paper, dosed 40 weeks, study length 59 weeks",43.3 mg/kg/day
same,TD50,"rat, strain Sprague-Dawley, females, in feed, site: pancreas, lesion: hemangioendothelial sarcoma, dosed 40 weeks, study length 59 weeks",81.6 mg/kg/day
same,TD50,"rat, strain Sprague-Dawley, females, in feed, site: several sites, sites named in the paper, lesion: hemangioendothelial sarcoma, dosed 40 weeks, study length 59 weeks",10.6 mg/kg/day
same,TD50,"rat, strain Sprague-Dawley, females, in feed, site: small intestine, lesion: adenocarcinoma, dosed 40 weeks, study length 59 weeks",111 mg/kg/day
same,TD50,"rat, strain Sprague-Dawley, females, in feed, site: small intestine, lesion: leiomyosarcoma, dosed 40 weeks, study length 59 weeks",111 mg/kg/day
CC1CN(N=O)CC(C)N1C (stereo not given),TD50,"hamster, strain Syrian Golden, males, by gavage, site: forestomach, lesion: papilloma, dosed 46 weeks, study length 69 weeks",1.32 mg/kg/day
same,TD50,"hamster, strain Syrian Golden, males, by gavage, site: liver, lesion: angiosarcoma, dosed 46 weeks, study length 69 weeks",6.18 mg/kg/day
same,TD50,"hamster, strain Syrian Golden, males, by gavage, site: lung, lesion: adenoma, dosed 46 weeks, study length 69 weeks",1.73 mg/kg/day
same,TD50,"hamster, strain Syrian Golden, males, by gavage, site: lung, lesion: carcinoma, dosed 46 weeks, study length 69 weeks",3.2 mg/kg/day
same,TD50,"rat, strain Fischer 344, females, in drinking water, site: nasal cavity, lesion: olfactory carcinoma, dosed 30 weeks, study length 85 weeks",0.151 mg/kg/day
CCN(CC)CCOc1ccc(C(O)(Cc2ccc(OC)cc2)c2ccccc2)cc1 (stereo not given),carcinogen call,"rat, strain Not specified, females, by gavage, site: mammary tissue, wider than the gland, dosed 52 weeks, study length 52 weeks",negative (inactive)
Nc1nc(-c2ccc([N+](=O)[O-])cc2)cs1,TD50,"mouse, strain Swiss, females, in feed, site: all sites, lesion: lymphocytic leukemia, dosed 46 weeks, study length 66 weeks",9.95 mg/kg/day
same,TD50,"mouse, strain Swiss, females, in feed, site: any site (literature study), lesion: several types, types named in the paper, dosed 46 weeks, study length 66 weeks",9.95 mg/kg/day
CCN(CC)C(=S)S[Te](SC(=S)N(CC)CC)(SC(=S)N(CC)CC)SC(=S)N(CC)CC,TD50,"mouse, strain B6AKF1, females, oral dosing, site: any site (literature study), lesion: several types, types named in the paper, dosed 76 weeks, study length 76 weeks",26.7 mg/kg/day
same,TD50,"mouse, strain B6AKF1, females, oral dosing, site: lung, lesion: adenoma, dosed 76 weeks, study length 76 weeks",28.2 mg/kg/day
same,TD50,"mouse, strain B6AKF1, males, oral dosing, site: any site (literature study), lesion: several types, types named in the paper, dosed 76 weeks, study length 76 weeks",31.2 mg/kg/day
same,TD50,"mouse, strain B6AKF1, males, oral dosing, site: liver, lesion: hepatoma, dosed 76 weeks, study length 76 weeks",55.5 mg/kg/day
same,TD50,"mouse, strain B6C3F1, females, in feed, site: any site (literature study), lesion: several types, types named in the paper, dosed 106 weeks, study length 106 weeks",1030 mg/kg/day (inactive)
same,TD50,"mouse, strain B6C3F1, females, in feed, site: liver, lesion: hepatocellular adenoma + hepatocellular carcinoma + neoplastic nodule, dosed 106 weeks, study length 106 weeks",2270 mg/kg/day
same,TD50,"mouse, strain B6C3F1, females, in feed, site: lung, lesion: alveolar/bronchiolar adenoma + alveolar/bronchiolar carcinoma, dosed 106 weeks, study length 106 weeks",3400 mg/kg/day
same,TD50,"mouse, strain B6C3F1, females, oral dosing, site: any site (literature study), lesion: several types, types named in the paper, dosed 76 weeks, study length 76 weeks",63.5 mg/kg/day
same,TD50,"mouse, strain B6C3F1, females, oral dosing, site: lung, lesion: adenoma, dosed 76 weeks, study length 76 weeks",131 mg/kg/day
same,TD50,"mouse, strain B6C3F1, males, in feed, site: any site (literature study), lesion: several types, types named in the paper, dosed 106 weeks, study length 106 weeks",902 mg/kg/day
same,TD50,"mouse, strain B6C3F1, males, in feed, site: eye, lesion: adenoma, NOS, dosed 106 weeks, study length 106 weeks",201 mg/kg/day
same,TD50,"mouse, strain B6C3F1, males, in feed, site: lung, lesion: alveolar/bronchiolar adenoma + alveolar/bronchiolar carcinoma, dosed 106 weeks, study length 106 weeks",228 mg/kg/day
same,TD50,"mouse, strain B6C3F1, males, in feed, site: lung, lesion: alveolar/bronchiolar carcinoma, dosed 106 weeks, study length 106 weeks",260 mg/kg/day
same,TD50,"mouse, strain B6C3F1, males, oral dosing, site: any site (literature study), lesion: several types, types named in the paper, dosed 76 weeks, study length 76 weeks",8.41 mg/kg/day
same,TD50,"mouse, strain B6C3F1, males, oral dosing, site: liver, lesion: hepatoma, dosed 76 weeks, study length 76 weeks",24.2 mg/kg/day
same,TD50,"mouse, strain B6C3F1, males, oral dosing, site: lung, lesion: adenoma, dosed 76 weeks, study length 76 weeks",108 mg/kg/day
same,TD50,"mouse, strain B6C3F1, males, oral dosing, site: lung, lesion: carcinoma, dosed 76 weeks, study length 76 weeks",108 mg/kg/day
same,TD50,"mouse, strain B6C3F1, males, oral dosing, site: lung, lesion: several types, types named in the paper, dosed 76 weeks, study length 76 weeks",52.1 mg/kg/day
same,TD50,"rat, strain Fischer 344, females, in feed, site: liver, lesion: hepatocellular adenoma + hepatocellular carcinoma + neoplastic nodule, dosed 105 weeks, study length 105 weeks",650 mg/kg/day
same,TD50,"rat, strain Fischer 344, females, in feed, site: pituitary gland, lesion: adenoma, NOS, dosed 105 weeks, study length 105 weeks",12.3 mg/kg/day (inactive)
same,TD50,"rat, strain Fischer 344, males, in feed, site: all sites, lesion: mesothelioma, NOS, dosed 105 weeks, study length 105 weeks",77.6 mg/kg/day
same,TD50,"rat, strain Fischer 344, males, in feed, site: body cavities, lesion: mesothelioma, NOS, dosed 105 weeks, study length 105 weeks",181 mg/kg/day
CCCCCCCCCCCCCCCC(=O)OC/C=C(C)/C=C/C=C(C)/C=C/C1=C(C)CCCC1(C)C,carcinogen call,"mouse, strain ICR/Jcl, males, in drinking water, site: forestomach, dosed 66 weeks, study length 66 weeks",negative (inactive)
